Measured values taken from patent US20230218608A1, “NEW STRATEGY FOR TREATING PANCREATIC CANCER” (INSERM (INSTITUT NATIONAL DE LA SANTÉ ET DE LA RECHERCHE …, priority 2020, published 2023).

How the values were obtained:
[1] = test system: PDAC cells; experiment: Dose-response viability experiments (Crystal violet viability assay); format: cell-based, human; conditions: 72 h; for Relative cell viability, mean of the treated cells: compared to non-treated cells
Protocol: We used 21 PDAC primary cells obtained from Patient-Derived Xenografts (PDX) from the PaCaOmics cohort, in which patients were included under the Paoli-Calmettes Institute clinical trial number 2011-A01439-32. Consent forms of informed patients were collected and registered in a central database. PDAC cells were obtained and maintained in serum-free ductal media (SFDM) as described, and incubated at 37° C. in a 5% CO2 incubator. Cell lines were monthly tested for Mycoplasma contamination and found to be negative.
We tested the sensitivity of PDAC cells to three different drugs targeting the FAO pathway: Etomoxir, Perhexiline, and Trimetazidine (all provided by Sigma-Aldrich, Saint-Quentin Fallavier, France), and to the standard chemotherapy Gemcitabine (Gemzar, Eli Lilly & Co).
Cells were seeded in 96-well plates (5,000 cells per well) and 24 h later, the medium was supplemented with increasing concentrations of the drugs in triplicates. For the combination treatment, we used Perhexiline at 5 μM with increasing doses of Gemcitabine. Cell viability was determined 72 h later by Crystal violet viability assay, which is independent from cell metabolism. Briefly, cells were fixed in Glutaraldehyde 1%, washed twice with PBS, stained with crystal violet 0.1% for 10 min, and then washed three times with PBS. Crystals were solubilized in SDS 1%, and absorbance was measured at 600 nm using an Epoch-Biotek spectrophotometer.

[2] = test system: PDAC032T xenograft; experiment: Subcutaneous PDAC xenograft, tumor growth; format: in vivo, mice; conditions: one month IP; Gemcitabine 120 mg/kg twice a week; low responder
Protocol: (§1) We assessed the FAO inhibition impact in vivo using the drug Perhexiline in combination with Gemcitabine. We performed subcutaneous xenografts in immunodeficient mice using four different primary PDAC cells. Recipient mice were 6-week-old female Swiss nude mice Crl:Nu(lco)-Foxn1nu purchased from Charles River, France. To obtain the xenografts, subcutaneous tumors from initial mouse donors were removed and finely minced with a scalpel. Then, 150 mg of tumor's pieces were mixed with 50 μl of Matrigel and implanted with a trocar (10 Gauge) in the subcutaneous space of anesthetized mice. Tumor volume was measured twice per week using a digital caliper and using the formula V=lenght×(width)/2. When tumor volume reached 200 mm^3, mice were randomly assigned in a treatment scheme:
(§2) a) Gemcitabine: 120 mg/kg twice a week
(§3) b) Perhexiline: 5 mg/kg every other day
(§4) c) Combination treatment: Gemcitabine plus Perhexiline with the same described indications
(§5) d) Vehicle: PBS in the case of Gemcitabine treatment controls and 3% DMSO in PBS for combination treatment controls.
(§6) Mice were treated by intraperitoneal injection during one month, and mice in which tumor volume reached 1.5 cm^3 during this period were ethically sacrificed and tumors removed.

[3] = test system: PDAC012T xenograft; experiment: Subcutaneous PDAC xenograft, tumor growth; format: in vivo, mice; conditions: one month IP; Gemcitabine 120 mg/kg twice a week; intermediate responder
Protocol: as §1, §2, §3, §4, §5, §6

[4] = test system: PDAC084T xenograft; experiment: Subcutaneous PDAC xenograft, tumor growth; format: in vivo, mice; conditions: one month IP; Gemcitabine 120 mg/kg twice a week, Perhexiline 5 mg/kg every other day; high responder
Protocol: as §1, §2, §3, §4, §5, §6

[5] = test system: four PDAC xenografts; experiment: Subcutaneous PDAC xenografts, tumor growth (four models overall); format: in vivo, mice; conditions: Perhexiline 5 mg/kg IP every other day, one month
Protocol: as §1, §2, §3, §4, §5, §6

[6] = test system: PDAC084T cells; experiment: Real-time metabolic analysis (Seahorse XF Cell Mito Stress Test); format: cell-based, human; conditions: Perhexiline 10 μM, 6 h
Protocol: We tested the impact of […], and the combination treatment (6 hours) on the mitochondrial respiration in PDAC084T cells. Measurements were performed using the Seahorse Bioscience XFe24 Extracellular Flux Analyzer (Agilent). Sixteen hours before the assay, cells at exponential growth were seeded into Seahorse 24-well plates and cultured at 37° C. with 5% CO2. Six hours before the assay, the media was replaced with vehicle DMSO (0.01%), Gemcitabine (1 μM), Perhexiline (10 μM), or the combination of the two drugs. After 6 h treatment, the media was replaced with OXPHOS assay medium (DMEM without phenol red [Sigma-Aldrich reference D5030], 143 mM NaCl, 2 mM glutamine, 1 mM sodium pyruvate and 10 mM glucose, pH 7.4) and the plate was pre-incubated for 1 h at 37° C. in a non-CO2 incubator. OCR was measured under basal conditions, and then after sequential injections of Oligomycin at 1 μM, carbonyl cyanide-p-trifluoromethox-[…]-hydrazon (FCCP, the concentration was optimized for each cell line), and 0.5 μM of Rotenone plus Antimycin A. Oligomycin is a respiratory Complex V inhibitor that allows to calculate ATP production by mitochondria, and FCCP is an uncoupling agent allowing the determination of the maximal respiration and the spare capacity. […]

[7] = test system: four PDAC cells; experiment: AnnexinV/PI apoptosis assay (flow cytometry); format: cell-based, human; conditions: Perhexiline 7 μM, 72 h
Protocol: Cells were seeded in 6-well plates in duplicates (150 000 cells per well) and the day after, the corresponding treatment was administered. We treated four PDAC cells with 7 μM of Perhexiline for 72 h (FIG. 5A), and in combination with 1 μM of Gemcitabine for 24 h for the PDAC084T cells. After the treatment period, cells were detached with Accutase, and resuspended in Annexin V-binding buffer (Biolegend). Cell death was determined using the Annexin V and Propidium Iodide (PI) staining (Biolegend), for apoptosis and necrosis, respectively. Ten thousand events per sample were acquired in a MAC SQuant-VYB (Miltenyi Biotec) and data analysis was done with the FlowJo software.

Compound: CCOC(=O)[C@@]1(CCCCCCOc2ccc(Cl)cc2)CO1 [Etomoxir]
- Relative cell viability, mean of the treated cells ([1]; Etomoxir 62.5 μM): 0.75

Compound: Nc1ccn([C@@H]2O[C@H](CO)[C@@H](O)C2(F)F)c(=O)n1 [Gemcitabine]
- Tumor growth [2]: induces tumor regression
- Tumor growth [3]: arresting the tumor growth
- Tumor growth [4]: arresting the tumor growth

Compound: C1CCC(C(CC2CCCCN2)C2CCCCC2)CC1 (stereo not shown) [Perhexiline]
- Tumor growth compared with vehicle-injected mice [5]: doesn't have any impact on tumor growth
- Cell viability ([1]; Perhexiline 5 μM alone): no impacts cell viability
- Relative cell viability, mean of the treated cells ([1]; Perhexiline 7 μM): 0.72
- Decrease of mitochondrial respiration (OCR) [6]: about 50%
- Cell death (apoptosis induction) [7]: apoptotic inductor

Compound: COc1ccc(CN2CCNCC2)c(OC)c1OC [Trimetazidine]
- Relative cell viability ([1]; Trimetazidine 62.5 μM, compared with non-treated cells): no effect in any cell
